Measured values taken from US11547681B2, “N-acylethanolamide derivatives and uses thereof” (ELIEM THERAPEUTICS, INC., priority 2016, dated 2023).

Assays:
[1] = Intestinal S9 fraction stability, human; settings: for microsomal CLint / half-life: both, human
How it was run: (§1)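 Test article (1 μM final) pre-equilibrated with intestinal S9 at 37 °C, then reaction started with cofactor cocktail; sampled at 0, 10, 20, 30 and 60 min and quenched in acidified acetonitrile. Prodrug and released PEA quantified by LC-MS/MS; half-life from single-phase exponential fit of percent remaining versus time 0.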

[2] = Intestinal S9 fraction stability, dog
How it was run: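 Test article at 1 μM final was incubated at 37° C with S9 reaction mixture, and the reaction was started by adding cofactor cocktail. Samples taken at 0, 10, 20, 30 and 60 min were quenched in acidified acetonitrile, and prodrug and PEA were measured by LC-MS/MS. Half-life came from single-phase exponential decay of percent remaining versus time 0.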

[3] = Intestinal S9 fraction stability, rat
How it was run: as §1

[4] = control compound, rat intestinal S9 fraction

SMILES: C[C@]12CC[C@H]3[C@@H](CCC4=CC(=O)CC[C@@]43C)[C@@H]1CC[C@@H]2O [Testosterone, testosterone, reference compound]
- microsomal CLint ([1]; s9, CLint, Control Compound, Human intestinal S9 fraction): 50.9 µL/min/mg
- microsomal CLint ([1]; s9, CLint, Human intestinal S9 fraction, control compound): 50.9 µL/min/mg
- microsomal CLint ([1]; s9, Clint, control compound, Example 4 control run): 26.9 µL/min/mg
- half-life ([1]; s9, Half-life (min), control compound, human intestinal S9 fraction): 0.13 h
- half-life ([1]; s9, Half-life, control compound, Example 4 control run): 0.433 h
- half-life ([1]; s9, Half-life, control compound, human intestinal S9 fraction): 0.08 h
- CLin ([1]; control compound, human intestinal S9 fraction): 0.144 ml/min/mg protein
- CLin ([2]; control compound, dog intestinal S9 fraction): <0.0116 ml/min/mg protein
- microsomal CLint ([2]; male, Beagle, dog, s9, CLint (ml/min/mg protein), calculated value in parentheses, control compound, dog intestinal S9 fraction, calculated value beyond duration of experiment): 7.22 µL/min/mg
- microsomal CLint ([2]; male, Beagle, dog, s9, CLint (ml/min/mg protein), control compound, dog intestinal S9 fraction): < 11.6 µL/min/mg
- microsomal CLint ([2]; male, Beagle, dog, s9, CLint, Control Compound, Dog intestinal S9 fraction): < 11.6 µL/min/mg
- microsomal CLint ([2]; male, Beagle, dog, s9, CLint, Dog intestinal S9 fraction, control compound): < 11.6 µL/min/mg
- half-life ([2]; male, Beagle, dog, s9, Half-life (min), calculated value in parentheses, control compound, dog intestinal S9 fraction, calculated value beyond duration of experiment): 1.6 h
- half-life ([2]; male, Beagle, dog, s9, Half-life (min), control compound, dog intestinal S9 fraction): > 1 h
- half-life ([2]; male, Beagle, dog, s9, Half-life, Control Compound, Dog intestinal S9 fraction): > 1 h
- half-life at 1 μM ([2]; male, Beagle, dog, s9, Half-life, Dog intestinal S9 fraction): > 1 h
- half-life ([2]; male, Beagle, dog, s9, Half-life, control compound, dog intestinal S9 fraction): > 1 h
- CLin [3, 4]: < 0.0116 ml/min/mg protein
- CLin, calculated value in parentheses [3, 4]: 0.0068 ml/min/mg protein
- microsomal CLint ([3]; male, Sprague-Dawley, rat, s9, CLint (ml/min/mg protein), calculated value in parentheses, control compound, rat intestinal S9 fraction, calculated value beyond duration of experiment): 6.52 µL/min/mg
- microsomal CLint ([3]; male, Sprague-Dawley, rat, s9, CLint (ml/min/mg protein), control compound, rat intestinal S9 fraction): < 11.6 µL/min/mg
- microsomal CLint ([3]; male, Sprague-Dawley, rat, s9, CLint, Control Compound, Rat intestinal S9 fraction): < 11.6 µL/min/mg
- microsomal CLint ([3]; male, Sprague-Dawley, rat, s9, CLint, Rat intestinal S9 fraction, control compound): < 11.6 µL/min/mg
- microsomal CLint ([3]; male, Sprague-Dawley, rat, s9, Clint, control compound, Example 4 control run): 5.97 µL/min/mg
- half-life ([3]; male, Sprague-Dawley, rat, s9, Half-life (min), calculated value in parentheses, control compound, rat intestinal S9 fraction, calculated value beyond duration of experiment): 1.77 h
- half-life ([3]; male, Sprague-Dawley, rat, s9, Half-life (min), control compound, rat intestinal S9 fraction): > 1 h
- half-life ([3]; male, Sprague-Dawley, rat, s9, Half-life, Control Compound, Rat intestinal S9 fraction): > 1 h
- half-life at 1 μM ([3]; male, Sprague-Dawley, rat, s9, Half-life, Rat intestinal S9 fraction): > 1 h
- half-life ([3]; male, Sprague-Dawley, rat, s9, Half-life, calculated value in parentheses, control compound, rat intestinal S9 fraction): 1.7 h
- half-life ([3]; male, Sprague-Dawley, rat, s9, Half-life, control compound, Example 4 control run): 1.93 h
- half-life ([3]; male, Sprague-Dawley, rat, s9, Half-life, control compound, rat intestinal S9 fraction): > 1 h
